According to US12239645B2, “Targeted dosing for the treatment of complement mediated disorders” (Achillion Pharmaceuticals, Inc., priority 2018, dated 2025):

Experiments:
[1] = tested on: Bb fragment of complement Factor B; assay: SAD study: Bb plasma concentrations; assay type: in vivo, human; settings: for mean Bb plasma concentration: eight hours post-dosing
Experimental: […] were dosed and evaluated in 4 dose groups with ten subjects receiving placebo (Table 1). The first dose group had 6 active and 6 placebo subjects; subsequent groups had 6 active and 2 placebo subjects each. Each group was followed for 28 days after dosing. All subjects were monitored for safety through the last scheduled visit at Day 28. Blood and urine samples were collected at predefined time points from Days 1 to 4 to determine plasma and urine concentrations of Compound 1 and from Days 1 to 7 to determine complement related activities. Results of serum AP activity measured by AP Wieslab assay as well as plasma Bb, factor D level and several other PD biomarkers were determined.
A graphical display of mean plasma Bb concentrations through Day 7 (reported in days) and within 24 hours of dosing (by randomized treatment group and overall) can be found in FIG. 9B and FIG. 9A, respectively. All Compound 1 dose groups evaluated had significant reductions in Bb plasma concentrations after single dose administration relative to baseline and the placebo-treated group as illustrated in FIG. 9A and FIG. 9B. Although the number of subjects evaluated in individual dose groups was relatively small (n=6), the magnitude of changes observed appeared to be dose-dependent. At baseline, the 40 mg, 80 mg, and 120 mg dose groups had Bb plasma concentrations within the normal reference range for the assay (i.e., 0.49 to 1.42 μg/mL); 40 mg, 80 mg, and 120 mg dose groups had mean (±SD) baseline values of 0.80 (±0.195) μg/mL, 0.78 (±0.128) μg/mL, and 0.70 (±0.095) μg/mL, respectively. Bb plasma concentrations reached a nadir 6 hours (in the 40 mg dose group) to 8 hours (in the 80 mg and 120 mg dose groups) post-dosing. Six hours post-dosing, mean (±SD) Bb plasma concentration in the 40 mg dose group had decreased to 0.51 (±0.091) μg/mL. Eight hours post-dosing, mean Bb plasma concentration had decreased to 0.48 (±0.056) μg/mL for the 80 mg dose group and 0.40 (±0.029) μg/mL for the 120 mg dose group. For the 80 mg and 120 mg dose groups, mean Bb plasma concentrations increased to above the LLN for the assay by 10 hours post-dosing (for the 80 mg dose group) and 24 hours (Day 2) (for the 120 mg dose group) post-dosing, respectively, with return to baseline values by 48 hours (Day 3) post-dosing. No subjects had treatment-emergent abnormalities in Bb plasma concentrations during the study.

[2] = tested on: Bb fragment of complement Factor B; assay: MAD study single-dose cohorts: plasma Bb concentration by ELISA; assay type: in vivo, human; settings: 240 mg single dose
Experimental: FIG. 15 is a graphical display of mean plasma Bb concentration as determined by ELISA assay for all subjects in the first 24 hours after administration of Compound 1 at single doses of 240 mg in fasted subjects (n=6), 120 mg in fed subjects (n=6) and placebo (n=4). Horizontal dashed gridlines represent: upper limit of normal (1.42 μg/ml); lower limit of normal (0.48 μg/ml); and lower limit of quantitation (LLOQ) (0.33 μg/ml). The x-axis is Time in hours and the y-axis is Mean Plasma Bb Concentration measured in μg/mL.
Serum AP hemolysis activity was assessed in samples collected at predefined time points from Day 1 (pre-dose) through Day 7. Ex vivo serum AP inhibition was more prolonged in the 240 mg dose group than previously observed in the SAD study at doses up to 120 mg (FIG. 14). […] Mean pre-dose (Day 1, 0 h) activity among active subjects was 123.02% (240 mg) and 110.43% (120 mg). Activity was reduced to 10% or lower from 1.5 h through 16 h in the 240 mg group, and from 2 h through 6 h in the 120 mg group. Activity was recovered to nearly pre-dose levels by 48 hours. AP activity in placebo subjects in contrast varied little from the pre-dose value of 109.52%, with a minimum value among all time points of 81.46%. […]

CC(=O)c1nn(CC(=O)N2[C@H](C(=O)Nc3nc(Br)ccc3C)C[C@@]3(C)C[C@@H]23)c2ccc(-c3cnc(C)nc3)cc12 [Compound 1, (1R,3S,5R)-2-(2-(3-acetyl-5-(2-methylpyrimidin-5-yl)-1H-indazol-1-yl)acetyl)-N-(6-bromo-3-methylpyridin-2-yl)-5-methyl-2-azabicyclo[3.1.0]hexane-3-carboxamide]
time of Bb plasma concentration nadir post-dosing ([1]; 40 mg dose group): 6 h
mean (±SD) Bb plasma concentration ([1]; 40 mg single dose, six hours post-dosing): 0.51 (±0.091) μg/mL
time of Bb plasma concentration nadir post-dosing ([1]; 80 mg and 120 mg dose groups): 8 h
time for mean Bb plasma concentration to increase above the LLN ([1]; 80 mg dose group): ≤ 10 h
mean Bb plasma concentration ([1]; 80 mg single dose): 0.48 (±0.056) μg/mL
time for mean Bb plasma concentration to increase above the LLN ([1]; 120 mg dose group): ≤ 24 h
mean Bb plasma concentration ([1]; 120 mg single dose): 0.40 (±0.029) μg/mL
time of Bb return to baseline values post-dosing ([1]; SAD dose groups): ≤ 48 h
time plasma Bb remained near its nadir post-dose [2]: at least 16 hours
